Experimental data reported in patent US20090298804A1, “Novel Compounds and Methods for Their Production” (priority 2006, published 2009).

Assays:
LXF 1121L = test: Monolayer proliferation assay (modified propidium iodide assay), LXF 1121L; assay type: cell-based, human; details: LXF 1121L (lung, large cell ca), 4 days continuous exposure
Protocol: (§1) In vitro evaluation of compounds for anticancer activity in a panel of human tumour cell lines in a monolayer proliferation assay was carried out at the Oncotest Testing Facility, Institute for Experimental Oncology, Oncotest GmbH, Freiburg.
(§2) The Oncotest cell lines are established from human tumor xenografts as described by Roth et al., (1999). The origin of the donor xenografts was described by Fiebig et al., (1999). Other cell lines were either obtained from the NCI (DU145, MCF-7) or purchased from DSMZ, Braunschweig, Germany.
(§3) All cell lines, unless otherwise specified, were grown at 37° C. in a humidified atmosphere (95% air, 5% CO2) in a ‘ready-mix’ medium containing RPMI 1640 medium, 10% fetal calf serum, and 0.1 mg/mL gentamicin (PAA, Cölbe, Germany).
(§4) A modified propidium iodide assay was used to assess the effects of the test compound(s) on the growth of human tumour cell lines (Dengler et al., (1995)).
(§5) Briefly, cells were harvested from exponential phase cultures by trypsinization, counted and plated in 96 well flat-bottomed microtitre plates at a cell density dependent on the cell line (5-10.000 viable cells/well). […] After thawing the plates, fluorescence was measured using the Cytofluor 4000 microplate reader (excitation 530 nm, emission 620 nm), giving a direct relationship to the total number of viable cells.
(§6) Growth inhibition was expressed as treated/control×100 (% T/C). […]

MCF-7 = test: Monolayer proliferation assay (modified propidium iodide assay), MCF-7; assay type: cell-based, human; details: MCF-7 (breast), 4 days continuous exposure
Protocol: as §1, §2, §3, §4, §5, §6

DU145 = test: Monolayer proliferation assay (modified propidium iodide assay), DU145; assay type: cell-based, human; details: DU145 (prostate, PTEN positive), 4 days continuous exposure
Protocol: as §1, §2, §3, §4, §5, §6

MEXF 394NL = test: Monolayer proliferation assay (modified propidium iodide assay), MEXF 394NL; assay type: cell-based, human; details: MEXF 394NL (melanoma), 4 days continuous exposure
Protocol: as §1, §2, §3, §4, §5, §6

CNXF 498NL = test: Monolayer proliferation assay (modified propidium iodide assay), CNXF 498NL; assay type: cell-based, human; details: CNXF 498NL (CNS), 4 days continuous exposure
Protocol: as §1, §2, §3, §4, §5, §6

CXF HT29 = test: Monolayer proliferation assay (modified propidium iodide assay), CXF HT29; assay type: cell-based, human; details: CXF HT29 (colon), 4 days continuous exposure
Protocol: as §1, §2, §3, §4, §5, §6

Hsp90 = Hsp90 (Homo sapiens, UniProt P07900); details: cited from earlier work
Reverse transcriptase = details: cited from earlier work
[1] = molecular target: terminal deoxynucleotidyl transferase (Homo sapiens, UniProt P04053); details: cited from earlier work
Chain of terminal deoxynucleotidyl transferase (P04053 whole entry, species assumed): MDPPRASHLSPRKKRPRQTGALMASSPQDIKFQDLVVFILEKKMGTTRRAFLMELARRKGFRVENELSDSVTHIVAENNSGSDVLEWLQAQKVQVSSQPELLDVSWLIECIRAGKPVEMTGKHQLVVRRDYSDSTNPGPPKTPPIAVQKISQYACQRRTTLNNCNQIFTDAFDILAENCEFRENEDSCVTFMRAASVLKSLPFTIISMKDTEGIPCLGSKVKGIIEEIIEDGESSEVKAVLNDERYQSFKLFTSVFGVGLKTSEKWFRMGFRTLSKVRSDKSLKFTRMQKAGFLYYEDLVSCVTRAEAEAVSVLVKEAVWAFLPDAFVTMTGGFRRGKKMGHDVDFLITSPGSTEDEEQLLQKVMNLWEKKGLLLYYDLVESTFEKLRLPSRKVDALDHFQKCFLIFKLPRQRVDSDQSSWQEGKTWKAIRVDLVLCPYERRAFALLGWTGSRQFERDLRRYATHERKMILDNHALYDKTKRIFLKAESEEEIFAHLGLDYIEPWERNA

15-desmethoxy macbecin [compound 15]
Test/Control (%) at drug concentration (LXF 1121L; 1 μg/mL): 47.7% | Test/Control (%) at drug concentration (LXF 1121L; 10 μg/mL): 14.7% | Test/Control (%) at drug concentration (MCF-7; 1 μg/mL): 53.3% | Test/Control (%) at drug concentration (MCF-7; 10 μg/mL): 13% | Test/Control (%) at drug concentration (DU145; 1 μg/mL): 30.3% | Test/Control (%) at drug concentration (DU145; 10 μg/mL): 6.3% | Test/Control (%) at drug concentration (MEXF 394NL; 1 μg/mL): 24.3% | Test/Control (%) at drug concentration (MEXF 394NL; 10 μg/mL): 4.7% | Test/Control (%) at drug concentration (CNXF 498NL; 1 μg/mL): 44.3% | Test/Control (%) at drug concentration (CNXF 498NL; 10 μg/mL): 12.7% | Test/Control (%) at drug concentration (CXF HT29; 1 μg/mL): 54.7% | Test/Control (%) at drug concentration (CXF HT29; 10 μg/mL): 13%

CO[C@H]1C[C@H](C)Cc2cc(O)cc(c2)NC(=O)/C=C/CC[C@H](OC)[C@@H](OC(N)=O)/C(C)=C/[C@H](C)[C@H]1O [KOSN1559]
binding affinity to Hsp90, greater than 17-AAG (Hsp90; relative to 17-AAG): 8 fold | binding affinity to Hsp90, greater than geldanamycin (Hsp90; relative to geldanamycin): 4 fold

CO[C@H]1[C@@H](OC)C[C@H](C)[C@@H](OC)C2=CC(=O)C=C(NC(=O)/C(C)=C/C=C\[C@H](C)[C@@H](OC(N)=O)/C(C)=C/[C@@H]1C)C2=O [Macbecin, macbecin]
Reverse transcriptase activity inhibition (Reverse transcriptase): not inhibited | terminal deoxynucleotidyl transferase activity inhibition [1]: not inhibited
